The text below walks through data of paper PMC11937066, “Abemaciclib in combination with therapies for patients with metastatic breast cancer: a phase 1b study” (Frontiers in Oncology, 2025).

Series [1] has as its system patients with HR+, HER2- or HER2+ metastatic breast cancer. The series is described as follows: Patient disposition and dose adjustments. The note with it: Part G, with abemaciclib and fulvestrant.
Series [2] deals with HR+ advanced breast cancer. Further details: method as in PMID 32887722. The settings on record: in combination with ribociclib and fulvestrant; cited from earlier work.
Series [3] concerns PIK3CA-mutated, HR+, HER2- ABC. Further details: method as in doi:10.1158/1538-7445.SABCS23-GS03-13. The settings on record: with fulvestrant and palbociclib, first-line treatment; cited from earlier work.
Series [4] is described as follows: Plasma pharmacokinetics, noncompartmental analysis (LC-MS/MS). The format is in vivo, human. Here is the method: In parts E, F, and H, PK sampling was performed for all analytes pre-dose on Cycle 1 Day 1, Cycle 1 Day 15, and Cycle 2 Day 1, as well as at 1, 2, 4, 6, 8, and 10 hours after dosing on Cycle 1 Day 1 and Cycle 2 Day 1. In Part H, PK sampling was performed for all analytes pre-dose on Cycle 1 Day 1, Cycle 1 Day 15, and Cycle 2 Day 1, as well as at 1, 2, 4, 6, 8, and 10 hours after dosing on Cycle 1 Day 1 and 2, 4, 6, 8, and 10 hours after dosing on Cycle 2 Day 1. In Parts F and H, additional samples were drawn pre-dose on Day 1 of Cycles 3–5 and after trastuzumab infusion on Day 1 of Cycles 1–5. In part H, additional samples were also drawn after pertuzumab infusion on Day 1 Cycle 4 and 5. In Part G, an additional pre-dose sample was drawn on Cycle 3 Day 1, and fulvestrant samples were obtained pre-dose on Day 1 of Cycles 1–3 and Day 15 of Cycle 1.
Samples were analyzed for abemaciclib (and its metabolites), exemestane, everolimus, fulvestrant, LY3023414, and pertuzumab using a validated liquid chromatography-tandem mass spectrometry method (abemaciclib and metabolites: Q^2 solutions, Ithaca, NY, USA; exemestane and everolimus: BASi, West Lafayette, IN, USA; fulvestrant: Charles River Laboratories, Montreal, Quebec, Canada; LY3023414: Covance Laboratories Inc, Madison, WI, USA; pertuzumab: Altasciences Company Inc., Quebec, Canada). Trastuzumab was analyzed using a validated Gyrolab xP method (PPD, Richmond, VA, USA).
Standard noncompartmental PK parameters were computed using Phoenix WinNonlin 64 Build 8.0/8.1 (Pharsight Corporation, Mountain View, CA, USA). This analysis included estimation of Cmax, tmax, Clast, tlast, and AUC0-tlast. AUC calculations were performed using the log linear trapezoidal method.

Another series concerns HER2+ breast cancer. The note with it: abemaciclib combined with fulvestrant and trastuzumab versus standard of care chemotherapy plus trastuzumab; cited from earlier work.

The structures appear in SMILES notation. Read-outs that look alike come from different tables or passages of the source.

As to `CO[C@@H](C)Cn1c(=O)n(C)c2cnc3ccc(-c4cncc(C(C)(C)O)c4)cc3c21` [LY3023414], in series [1], the “Additional patients who discontinued LY3023414 due to AEs” value is “two”. Further, in series [1] (12 patients), the LY3023414 dose adjustments is 10 patients, the LY3023414 dose omission result is “eight” and the LY3023414 dose reduction entry is recorded as “seven”.
With `Cc1nc(NC(=O)N2CCC[C@H]2C(N)=O)sc1-c1ccnc(C(C)(C)C(F)(F)F)c1` [alpelisib], the “Feasibility of the combination” value in series [2] is listed as “not to be feasible due to toxicity”.
`C[C@H](Nc1ccc2c(c1)OCCn1cc(N3C(=O)OC[C@H]3C(F)F)nc1-2)C(N)=O` [inavolisib]: the Progression-free survival result in series [3] was “statistically significant improvement”.
Take `CCN1CCN(Cc2ccc(Nc3ncc(F)c(-c4cc(F)c5nc(C)n(C(C)C)c5c4)n3)nc2)CC1` [abemaciclib]: the “mean accumulation ratio (based on Cmax)” value in series [4] (Part E Cohort 1, abemaciclib 150 mg Q12H with exemestane + everolimus) was found to be 3.16. Further, the “mean AUC0-tlast” value in series [4] (Part E Cohort 1, multiple doses abemaciclib 150 mg Q12H with exemestane + everolimus) was determined as 3280 hr^*ng/mL; in series [4] (Part E Cohort 1, single dose abemaciclib 150 mg with exemestane + everolimus), 771 hr^*ng/mL; in series [4] (Part E Cohort 2, single dose abemaciclib 200 mg with exemestane + everolimus), 984 hr^*ng/mL; in series [4] (Part H, single dose abemaciclib 100 mg with trastuzumab and pertuzumab), 343 hr^*ng/mL. The “accumulation ratio based on Cmax” value in series [4] (Part F, abemaciclib 150 mg Q12H with trastuzumab) was found to be 2.13. For the same molecule, in series [4] (Parts E–H), the “Effect on the pharmacokinetics of the combination study drugs” value is on record as “no effect”. The “Abemaciclib exposures compared with monotherapy PK data” value in series [4] (all combination therapies tested) is recorded as “consistent with monotherapy PK data”. In addition, the Cmax in series [4] (human, plasma, oral, 100 mg, Part H, single dose abemaciclib 100 mg with trastuzumab and pertuzumab, read-out: mean Cmax) was 71.5 ng/mL; in series [4] (human, plasma, oral, 150 mg, Part E Cohort 1, multiple doses abemaciclib 150 mg Q12H with exemestane + everolimus, read-out: mean Cmax), 452 ng/mL; in series [4] (human, plasma, oral, 150 mg, Part E Cohort 1, single dose abemaciclib 150 mg with exemestane + everolimus, plasma, read-out: mean Cmax) it was 157 ng/mL; in series [4] (human, plasma, oral, 150 mg, Part F, abemaciclib 150 mg Q12H with trastuzumab, read-out: steady-state mean Cmax), 242 ng/mL; in series [4] (human, plasma, oral, 200 mg, Part E Cohort 2, single dose abemaciclib 200 mg with exemestane + everolimus, plasma, read-out: mean Cmax) it was 191 ng/mL; in series [4] (human, plasma, oral, Part F, single dose abemaciclib (150 mg or 200 mg) with trastuzumab, range over dose cohorts, read-out: mean Cmax), 133 to 148 ng/mL. Besides, the Cmax in series [4] (human, plasma, oral, Part G, single dose 150 mg abemaciclib with 500 mg fulvestrant and 100 mg or 150 mg LY3023414, range over cohorts, read-out: abemaciclib mean Cmax) lay in the range of 131 to 139 ng/mL. In addition, the AUC(0-t) in series [4] (human, plasma, oral, Part F, abemaciclib 150 mg Q12H with trastuzumab, read-out: steady-state mean AUC0-tlast) amounted to 1660 ng·h/mL. Besides, the Progression-free survival entry with HER2+ breast cancer is “significantly improved”.
For `Nc1cc(C(F)(F)F)c(-c2cc(N3CCOCC3)nc(N3CCOCC3)n2)cn1` [buparlisib], the “Feasibility of the combination” value in series [2] is listed as “not to be feasible due to toxicity”.
